Calls of active or inactive are those of the source. The calls are words filed in the database; no cut-off is given here.
Tests used:
[1] = test system: HCT-116; assay: Antitumor activity against human HCT-116 cells xenografted with BALB/c mouse assessed as tumor growth inhibition by measuring T/C ratio at 50 mg/kg,po administrated once daily for 21 days; format: functional; settings: time 21 day
[2] = test system: NCI-H446; assay: Antitumor activity against human NCI-H446 cells xenografted with BALB/c mouse assessed as tumor growth inhibition by measuring T/C ratio at 100 mg/kg,po administrated once daily for 21 days; format: functional; settings: time 21 day
[3] = test system: HCT-116; assay: Antitumor activity against human HCT-116 cells xenografted with BALB/c mouse assessed as tumor growth inhibition at 100 mg/kg,po administrated once daily for 21 days relative to control; format: functional; settings: HCT-116, 504 h, time 21 day, read-out: TGI
[4] = target: T1, DNA topoisomerase 1 (Homo sapiens) (UniProt P11387); assay: Inhibition of Topoisomerase I (unknown origin) using pBR322 DNA as substrate at 1 uM incubated for 15 mins by EtBr staining based agarose gel electrophoresis method
T1 sequence (whole entry): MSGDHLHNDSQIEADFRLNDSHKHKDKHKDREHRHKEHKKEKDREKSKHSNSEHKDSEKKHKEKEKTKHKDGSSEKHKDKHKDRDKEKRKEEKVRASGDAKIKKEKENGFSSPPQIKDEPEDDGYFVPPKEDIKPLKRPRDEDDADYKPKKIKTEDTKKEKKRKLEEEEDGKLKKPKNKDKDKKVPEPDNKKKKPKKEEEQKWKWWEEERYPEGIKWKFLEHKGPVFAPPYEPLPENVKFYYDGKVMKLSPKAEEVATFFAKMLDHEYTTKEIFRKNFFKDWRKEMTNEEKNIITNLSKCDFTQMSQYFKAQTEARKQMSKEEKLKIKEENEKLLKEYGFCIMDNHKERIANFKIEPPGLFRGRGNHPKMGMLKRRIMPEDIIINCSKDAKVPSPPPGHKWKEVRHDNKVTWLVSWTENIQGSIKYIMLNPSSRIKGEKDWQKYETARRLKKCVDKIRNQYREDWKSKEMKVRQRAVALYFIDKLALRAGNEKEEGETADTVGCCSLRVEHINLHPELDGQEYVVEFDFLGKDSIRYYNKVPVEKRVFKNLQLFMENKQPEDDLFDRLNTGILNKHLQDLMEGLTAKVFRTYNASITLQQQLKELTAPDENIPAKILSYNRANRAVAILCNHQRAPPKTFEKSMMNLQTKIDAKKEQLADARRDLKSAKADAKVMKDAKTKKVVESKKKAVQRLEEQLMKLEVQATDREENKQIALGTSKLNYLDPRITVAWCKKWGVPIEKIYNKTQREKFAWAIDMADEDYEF

[5] = test system: NCI-H446; assay: Antitumor activity against human NCI-H446 cells xenografted with BALB/c mouse assessed as tumor growth inhibition at 100 mg/kg,po administrated once daily for 21 days relative to control; format: functional; settings: NCI-H446, 504 h, time 21 day, read-out: TGI

## CN(C)CCCn1c2cc3c(cc2c2ncc4ccccc4c21)OCO3
[1]
  T/C: 55%
[2]
  T/C: 35.2%
[3]
  inhibition in vivo at 100 mg/kg: 77.4%
[4]
  inhibition: Active
[5]
  inhibition in vivo at 100 mg/kg: 66.1%

From ChEMBL document CHEMBL5576135, “Discovery of Indolo[3,2-c]isoquinoline Derivatives as Novel Top1/2 Dual Inhibitors with Orally Efficacious Antitumor Activity and Low Toxicity” (J Med Chem, 2024)
